Our source for the IC50 values is patent publication US20250346569A1, “NEW DERIVATIVES FOR TREATING TRPM3 MEDIATED DISORDERS” (Katholieke Universiteit Leuven, priority 2022, published 2025).

pIC50: −log10 of the molar value.

For the assay, the target named is T1, mouse TRPM3α2 (mTRPM3) ion channel (Mus musculus, UniProt J9SQF3).
T1 construct: expressed in transfected cells; host or cells: flip-in HEK293
T1 sequence (J9SQF3 1-1709 isoform J9SQF3-12): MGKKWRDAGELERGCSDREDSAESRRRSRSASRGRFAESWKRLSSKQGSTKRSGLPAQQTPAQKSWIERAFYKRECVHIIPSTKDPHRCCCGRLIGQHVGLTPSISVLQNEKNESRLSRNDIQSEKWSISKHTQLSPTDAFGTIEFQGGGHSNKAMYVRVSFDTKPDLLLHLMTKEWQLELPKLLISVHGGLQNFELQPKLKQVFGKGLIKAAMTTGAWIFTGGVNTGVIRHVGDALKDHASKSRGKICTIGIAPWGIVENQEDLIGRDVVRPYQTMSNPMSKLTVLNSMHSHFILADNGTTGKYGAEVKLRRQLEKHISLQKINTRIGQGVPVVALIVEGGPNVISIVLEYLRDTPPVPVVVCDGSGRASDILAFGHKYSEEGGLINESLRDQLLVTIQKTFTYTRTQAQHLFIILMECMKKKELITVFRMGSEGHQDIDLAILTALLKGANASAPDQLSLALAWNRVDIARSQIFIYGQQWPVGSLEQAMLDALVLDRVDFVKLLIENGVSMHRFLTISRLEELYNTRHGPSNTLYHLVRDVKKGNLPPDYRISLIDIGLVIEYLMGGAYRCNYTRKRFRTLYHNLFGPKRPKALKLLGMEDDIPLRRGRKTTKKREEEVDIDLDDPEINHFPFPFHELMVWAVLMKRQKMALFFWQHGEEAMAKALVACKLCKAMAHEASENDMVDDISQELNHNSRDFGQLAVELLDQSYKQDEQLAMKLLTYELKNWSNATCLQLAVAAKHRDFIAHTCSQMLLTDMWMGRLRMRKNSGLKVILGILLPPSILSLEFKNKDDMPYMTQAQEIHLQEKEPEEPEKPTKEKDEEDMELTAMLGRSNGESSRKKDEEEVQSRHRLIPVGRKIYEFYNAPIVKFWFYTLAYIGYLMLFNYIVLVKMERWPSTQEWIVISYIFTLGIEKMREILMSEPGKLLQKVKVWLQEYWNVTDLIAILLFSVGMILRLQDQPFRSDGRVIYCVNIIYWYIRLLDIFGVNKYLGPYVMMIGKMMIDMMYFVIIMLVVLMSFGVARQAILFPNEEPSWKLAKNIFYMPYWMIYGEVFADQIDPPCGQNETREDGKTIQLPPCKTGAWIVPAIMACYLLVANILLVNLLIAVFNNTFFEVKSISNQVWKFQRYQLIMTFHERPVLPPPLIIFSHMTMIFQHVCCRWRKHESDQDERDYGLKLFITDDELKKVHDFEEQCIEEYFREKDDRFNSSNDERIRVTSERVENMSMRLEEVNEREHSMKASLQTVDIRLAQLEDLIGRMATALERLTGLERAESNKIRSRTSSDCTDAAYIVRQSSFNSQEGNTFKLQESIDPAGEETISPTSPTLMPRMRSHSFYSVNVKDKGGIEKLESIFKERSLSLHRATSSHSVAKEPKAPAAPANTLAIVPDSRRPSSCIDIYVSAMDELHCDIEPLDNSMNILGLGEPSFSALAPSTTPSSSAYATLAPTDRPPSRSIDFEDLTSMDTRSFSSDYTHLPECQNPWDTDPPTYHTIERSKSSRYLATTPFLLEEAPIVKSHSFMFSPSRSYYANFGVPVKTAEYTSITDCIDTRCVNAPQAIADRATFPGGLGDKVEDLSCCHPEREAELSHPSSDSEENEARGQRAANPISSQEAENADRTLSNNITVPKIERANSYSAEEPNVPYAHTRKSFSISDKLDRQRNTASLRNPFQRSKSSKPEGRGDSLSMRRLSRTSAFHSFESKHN
Briefly: Monitoring the TRPM3 ion channel driven Ca2+ uptake (Fluo-4 AM assay). Particulars: TRPM3 overexpressing flip-in HEK293 cells, channel stimulated with Pregnenolone sulfate (PS) 50 μM. In kind it is cell-based. The method in brief: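 Flp-In HEK293 cells overexpressing mTRPM3α2, loaded with Fluo-4 AM and added to wells holding compound plus 50 μM pregnenolone sulfate in Ca2+-containing Krebs buffer. Fluorescence (ex 485/em 535) read right after cell addition. Inhibition normalised to vehicle and positive-control inhibitor; IC50 derived.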
A word on the pIC50: it is the IC50 on a negative log10 scale, so that one unit is a factor of ten. Compound `Cc1sc2ccc(OCc3ccccc3)cc2c1C(=O)NC1CC(F)(F)C1` [Cpd 089, 5-(benzyloxy)-N-(3,3-difluorocyclobutyl)-2-methyl-1-benzothiophene-3-carboxamide] showed a pIC50 of less than 4.70.

Consider `Cc1sc2ccc(OCc3cccnc3C(F)(F)F)cc2c1C(=O)NC1CCN(C)CC1` [Cpd 129, 2-methyl-N-(1-methylpiperidin-4-yl)-5-{[2-(trifluoromethyl)pyridin-3-yl]methoxy}-1-benzothiophene-3-carboxamide], for which the pIC50 is greater than 6.00.

In turn, `Cc1sc2ccc(OCc3ccccc3F)cc2c1C(=O)NC1(C(N)=O)COC1` [Cpd 087, 3-{5-[(2-fluorophenyl)methoxy]-2-methyl-1-benzothiophene-3-amido}oxetane-3-carboxamide] had a pIC50 greater than 6.00.

Regarding `Cc1ncc(COc2ccc3sc(C)c(C(=O)NC4(C(N)=O)CCOC4)c3c2)s1` (stereo not drawn) [Cpd 020, 3-{2-methyl-5-[(2-methyl-1,3-thiazol-5-yl)methoxy]-1-benzothiophene-3-amido}oxolane-3-carboxamide], the pIC50 is greater than 6.00.

Take `Cc1ncsc1COc1ccc2sc(C)c(C(=O)NC3CCNCC3(F)F)c2c1` (single isomer, unassigned) [Cpd 042 - En2, N-(3,3-difluoropiperidin-4-yl)-2-methyl-5-[(4-methyl-1,3-thiazol-5-yl)methoxy]-1-benzothiophene-3-carboxamide]: the pIC50 is greater than 6.00.

`Cc1sc2ccc(OCc3ccccc3F)cc2c1C(=O)NC1CCNCC1(F)F` (single isomer, unassigned) [Cpd 095 - En2, N-(3,3-difluoropiperidin-4-yl)-5-[(2-fluorophenyl)methoxy]-2-methyl-1-benzothiophene-3-carboxamide] had a pIC50 of 4.70 to 6.00.

Regarding `Cc1sc2ccc(OCC3COC3)cc2c1C(=O)NC(C)(CO)C(N)=O` (single isomer, unassigned) [Cpd 068 - En1, 3-hydroxy-2-methyl-2-({2-methyl-5-[(oxetan-3-yl)methoxy]-1-benzothiophen-3-yl}formamido)propanamide], the pIC50 was less than 4.70.

Compound `Cc1sc2ccc(OCc3cccnc3C(F)(F)F)cc2c1C(=O)NCCN1CCOC1=O` [Cpd 107, 2-methyl-N-[2-(2-oxo-1,3-oxazolidin-3-yl)ethyl]-5-{[2-(trifluoromethyl)pyridin-3-yl]methoxy}-1-benzothiophene-3-carboxamide] had a pIC50 of 4.70 to 6.00.

In turn, `Cc1sc2ccc(OCc3cccnc3C(F)(F)F)cc2c1C(=O)NCCN(C)C` [Cpd 117, N-[2-(dimethylamino)ethyl]-2-methyl-5-{[2-(trifluoromethyl)pyridin-3-yl]methoxy}-1-benzothiophene-3-carboxamide] had a pIC50 greater than 6.00.

As for `Cc1ncsc1COc1ccc2sc(C)c(C(=O)NC(C)(C)C(N)=O)c2c1` [Cpd 031, 2-methyl-2-({2-methyl-5-[(4-methyl-1,3-thiazol-5-yl)methoxy]-1-benzothiophen-3-yl}formamido)propanamide], the pIC50 was greater than 6.00.

`Cc1ncc(COc2ccc3sc(C)c(C(=O)N[C@H](C)C(N)=O)c3c2)s1` [Cpd 005, (2R)-2-({2-methyl-5-[(2-methyl-1,3-thiazol-5-yl)methoxy]-1-benzothiophen-3-yl}formamido)propanamide] gave a pIC50 greater than 6.00.

In turn, `Cc1sc2ccc(OCc3ccccc3)cc2c1C(=O)NCC(C)(C)O` [Cpd 100, 5-(benzyloxy)-N-(2-hydroxy-2-methylpropyl)-2-methyl-1-benzothiophene-3-carboxamide] had a pIC50 of 4.70 to 6.00.

As for `Cc1nc(COc2ccc3sc(C)c(C(=O)NC(C)(CO)C(N)=O)c3c2)cs1` (single isomer, unassigned) [Cpd 015 - En2, 3-hydroxy-2-methyl-2-({2-methyl-5-[(2-methyl-1,3-thiazol-4-yl)methoxy]-1-benzothiophen-3-yl}formamido)propanamide], the pIC50 is greater than 6.00.

With `CNC(=O)C(C)(CO)NC(=O)c1c(C)sc2ccc(OCc3cnc(C)s3)cc12` (single isomer, unassigned) [Cpd 132 - En1, 3-hydroxy-N,2-dimethyl-2-({2-methyl-5-[(2-methyl-1,3-thiazol-5-yl)methoxy]-1-benzothiophen-3-yl}formamido)propanamide], the pIC50 was greater than 6.00.

`COc1ncccc1COc1ccc2sc(C)c(C(=O)N[C@H](C)C(N)=O)c2c1` [Cpd 140, (2R)-2-({5-[(2-methoxypyridin-3-yl)methoxy]-2-methyl-1-benzothiophen-3-yl}formamido)propanamide] had a pIC50 greater than 6.00.

The compound `Cc1sc2ccc(OCc3cccnc3C(F)(F)F)cc2c1C(=O)NC1CCNC1=O` (stereo not drawn) [Cpd 094, 2-methyl-N-(2-oxopyrrolidin-3-yl)-5-{[2-(trifluoromethyl)pyridin-3-yl]methoxy}-1-benzothiophene-3-carboxamide] had a pIC50 greater than 6.00.

On to `Cc1sc2ccc(OCc3cccnc3C(F)(F)F)cc2c1C(=O)NC1CCOC1` (stereo not drawn) [Cpd 097, 2-methyl-N-(oxolan-3-yl)-5-{[2-(trifluoromethyl)pyridin-3-yl]methoxy}-1-benzothiophene-3-carboxamide], for which the pIC50 was greater than 6.00.

Consider `Cc1sc2ccc(OCc3cccnc3C(F)(F)F)cc2c1C(=O)NC1CN(C)CC1(F)F` (stereo not drawn) [Cpd 121, N-(4,4-difluoro-1-methylpyrrolidin-3-yl)-2-methyl-5-{[2-(trifluoromethyl)pyridin-3-yl]methoxy}-1-benzothiophene-3-carboxamide], for which the pIC50 is greater than 6.00.

As for `Cc1ncsc1COc1ccc2sc(C)c(C(=O)NCCN(C)C)c2c1` [Cpd 118, N-[2-(dimethylamino)ethyl]-2-methyl-5-[(4-methyl-1,3-thiazol-5-yl)methoxy]-1-benzothiophene-3-carboxamide], the pIC50 was greater than 6.00.

`Cc1sc2ccc(OCc3ccccc3F)cc2c1C(=O)N[C@H]1CCN(CCO)C1=O` [Cpd 059, 5-[(2-fluorophenyl)methoxy]-N-[(3S)-1-(2-hydroxyethyl)-2-oxopyrrolidin-3-yl]-2-methyl-1-benzothiophene-3-carboxamide] had a pIC50 greater than 6.00.

`Cc1sc2ccc(OCc3cccnc3O)cc2c1C(=O)N[C@@H](C)C(N)=O` [Cpd 010, (2S)-2-({5-[(2-hydroxypyridin-3-yl)methoxy]-2-methyl-1-benzothiophen-3-yl}formamido)propanamide] gave a pIC50 greater than 6.00.

`O=C1CCC(CNC(=O)c2c(C(F)F)sc3ccc(OCc4ccccc4)cc23)N1` (stereo not drawn) [Cpd 148, 5-(benzyloxy)-2-(difluoromethyl)-N-[(5-oxopyrrolidin-2-yl)methyl]-1-benzothiophene-3-carboxamide] gave a pIC50 of less than 4.70.

Turning to `Cc1sc2ccc(OCc3ccccc3F)cc2c1C(=O)NC1(CO)CCC1` [Cpd 077, 5-[(2-fluorophenyl)methoxy]-N-[1-(hydroxymethyl)cyclobutyl]-2-methyl-1-benzothiophene-3-carboxamide], the pIC50 is greater than 6.00.

Compound `Cc1sc2ccc(OCc3cccnc3C(F)(F)F)cc2c1C(=O)NC1(CO)CC1` [Cpd 076, N-[1-(hydroxymethyl)cyclopropyl]-2-methyl-5-{[2-(trifluoromethyl)pyridin-3-yl]methoxy}-1-benzothiophene-3-carboxamide] had a pIC50 greater than 6.00.

For the compound `Cc1sc2ccc(OCc3cccnc3C(F)(F)F)cc2c1C(=O)N[C@@H](CO)C(N)=O` [Cpd 053, (2S)-3-hydroxy-2-[(2-methyl-5-{[2-(trifluoromethyl)pyridin-3-yl]methoxy}-1-benzothiophen-3-yl)formamido]propanamide], the pIC50 is greater than 6.00.

Take `Cc1sc2ccc(OCc3cccnc3C(F)(F)F)cc2c1C(=O)NCC1(N(C)C)CCCC1` [Cpd 113, N-{[1-(dimethylamino)cyclopentyl]methyl}-2-methyl-5-{[2-(trifluoromethyl)pyridin-3-yl]methoxy}-1-benzothiophene-3-carboxamide]: the pIC50 was greater than 6.00.

Compound `Cc1ncc(COc2ccc3sc(C)c(C(=O)NC(C)(CO)C(N)=O)c3c2)s1` (single isomer, unassigned) [Cpd 019 - En2, 3-hydroxy-2-methyl-2-({2-methyl-5-[(2-methyl-1,3-thiazol-5-yl)methoxy]-1-benzothiophen-3-yl}formamido)propanamide] showed a pIC50 greater than 6.00.

Compound `Cc1ncsc1COc1ccc2sc(C)c(C(=O)N[C@@H]3CCN(CCO)C3=O)c2c1` [Cpd 028, N-[(3R)-1-(2-hydroxyethyl)-2-oxopyrrolidin-3-yl]-2-methyl-5-[(4-methyl-1,3-thiazol-5-yl)methoxy]-1-benzothiophene-3-carboxamide] had a pIC50 of 4.70 to 6.00.

Consider `Cc1sc2ccc(OCc3ccccc3)cc2c1C(=O)NCC1(N(C)C)CCCC1` [Cpd 111, 5-(benzyloxy)-N-{[1-(dimethylamino)cyclopentyl]methyl}-2-methyl-1-benzothiophene-3-carboxamide], for which the pIC50 was greater than 6.00.

Consider `Cc1sc2ccc(OCc3ccccc3)cc2c1C(=O)NC1CCN(C)CC1` [Cpd 127, 5-(benzyloxy)-2-methyl-N-(1-methylpiperidin-4-yl)-1-benzothiophene-3-carboxamide], for which the pIC50 was 4.70 to 6.00.

As for `CC(C)(O)CNC(=O)c1c(C(F)F)sc2ccc(OCc3ccccc3)cc12` [Cpd 014, 5-(benzyloxy)-2-(difluoromethyl)-N-(2-hydroxy-2-methylpropyl)-1-benzothiophene-3-carboxamide], the pIC50 was less than 4.70.

Turning to `Cc1sc2ccc(OCc3ccccn3)cc2c1C(=O)NC(C)(C)C(N)=O` [Cpd 064, 2-methyl-2-({2-methyl-5-[(pyridin-2-yl)methoxy]-1-benzothiophen-3-yl}formamido)propanamide], the pIC50 is greater than 6.00.

Take `Cc1ncsc1COc1ccc2sc(C)c(C(=O)NC3CN(C)CC3(F)F)c2c1` (stereo not drawn) [Cpd 122, N-(4,4-difluoro-1-methylpyrrolidin-3-yl)-2-methyl-5-[(4-methyl-1,3-thiazol-5-yl)methoxy]-1-benzothiophene-3-carboxamide]: the pIC50 was greater than 6.00.
